ChEMBL document CHEMBL1152086, “Synthesis and in vitro anti-HIV and antitumor activity of new 2-chloroethyl thiocarbamates” (1995)
Activity calls are given as the source filed them. The rule behind the calls is not given here.

Columns and labels:
SCLC = test: In vitro anticancer activity against 2 NCI SCLC cell lines; inactive; assay type: functional, cell-based
NSCLC = test: In vitro anticancer activity against 11 NCI NSCLC cell lines; inactive; assay type: functional, cell-based
NCI [1] = test: In vitro anticancer activity against 6 NCI ovarian cancer cell lines; inactive; assay type: functional, cell-based
NCI [2] = test: In vitro anticancer activity against 8 NCI CNS cancer cell lines; inactive; assay type: functional, cell-based
[3] = In vitro anticancer activity against 9 NCI melanoma cell lines; inactive; assay type: functional
NCI [4] = test: In vitro anticancer activity against 9 NCI renal cancer cell lines; inactive; assay type: functional, cell-based
Cancer cell lines = test: In vitro anticancer activity against 9 NCI colon cancer cell lines; inactive; assay type: functional, cell-based
CCRF-CEM [5] = test: In vitro anticancer activity against CCRF-CEM leukemia cell line; assay type: functional; conditions: Homo sapiens
HL-60 = test: In vitro anticancer activity against HL-60(TB) leukemia cell line; assay type: functional; conditions: Homo sapiens
K562 = test: In vitro anticancer activity against K-562 leukemia cell line; assay type: functional; conditions: Homo sapiens
MOLT-4 = test: In vitro anticancer activity against MOLT-4 leukemia cell line; assay type: functional; conditions: Homo sapiens
RPMI-8226 = test: In vitro anticancer activity against RPMI-8226 leukemia cell line; assay type: functional; conditions: Homo sapiens
SR = test: In vitro anticancer activity against SR leukemia cell line; assay type: functional; conditions: Homo sapiens
CCRF-CEM [6] = test: In vitro anticancer activity against CCRF-CEM leukemia cell line.(Maximum Concentration); assay type: functional; conditions: Homo sapiens

Row | SMILES | Activity (SCLC) | Activity (NSCLC) | Activity (NCI [1]) | Activity (NCI [2]) | Activity [3] | Activity (NCI [4]) | Activity (Cancer cell lines) | GI50 (CCRF-CEM [5]) [µM] | GI50 (HL-60) [µM] | GI50 (K562) [µM] | GI50 (MOLT-4) [µM] | GI50 (RPMI-8226) [µM] | GI50 (SR) [µM] | GI50 (CCRF-CEM [6]) [µM]
1 | O=C(NCCCl)Sc1ccccc1 | inactive | inactive | inactive | inactive | inactive | inactive | inactive | – | – | – | – | – | – | –
2 | CCOC(=O)CSC(=O)NCCCl | inactive | inactive | inactive | inactive | inactive | inactive | inactive | 7.22 | 22.3 | 29 | > 100 | > 100 | > 100 | –
3 | O=C(NCCCl)SCCO | inactive | inactive | inactive | inactive | inactive | inactive | inactive | – | > 100 | > 100 | > 100 | > 100 | > 100 | > 100
